The text below walks through data of patent US20090318423A1, “Ion Channel Modulators & Uses Thereof” (LECTUS THERAPEUTICS LIMITED, priority 2006, published 2009).

The target of this experiment is T1, Kv1.1 alpha subunit T1 domain binding to Kvbeta1 subunits (Rattus norvegicus, UniProt P63144).
T1 construct: expression of Kv1.1 alpha subunit T1 domains in E. coli; His; made in house; host or cells: E. coli (cleared lysates)
T1 sequence (P63144 1-401): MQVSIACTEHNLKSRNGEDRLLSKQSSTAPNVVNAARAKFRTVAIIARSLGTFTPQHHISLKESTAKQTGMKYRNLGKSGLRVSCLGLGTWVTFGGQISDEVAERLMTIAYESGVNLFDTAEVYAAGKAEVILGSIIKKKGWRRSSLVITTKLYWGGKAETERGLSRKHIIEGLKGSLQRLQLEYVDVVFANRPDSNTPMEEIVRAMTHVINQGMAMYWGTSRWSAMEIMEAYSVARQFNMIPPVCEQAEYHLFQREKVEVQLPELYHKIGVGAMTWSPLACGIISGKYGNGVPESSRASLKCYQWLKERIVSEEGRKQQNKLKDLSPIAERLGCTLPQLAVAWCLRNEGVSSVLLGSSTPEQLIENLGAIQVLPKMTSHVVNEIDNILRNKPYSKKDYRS
Briefly: Kv1.x T1 / Kvbeta subunit protein-protein interaction assay (ELISA). Conditions: His-/FLAG-tagged Kv1.1 T1 domain lysate; biotin-tagged Kvbeta1 immobilised on streptavidin plates; anti-FLAG/HRP ELISA detection; read-out: IC50 for inhibition of Kv1.1 alpha subunit T1 binding to Kvbeta1 subunits. On the procedure:
Compounds of Examples 3, 13-15 and 18-22 and 24-26 were examined for their ability to inhibit the interaction between Kv1.x channels and Kvbeta subunits using a protein-protein interaction assay.
Cloning of rat His- and biotin-tagged Kvbeta1 subunit cDNA, expression of Kvbeta1 subunits in E. coli and lysis of E. coli containing Kvbeta1 subunits were carried out as previously described (Kozlowski et al., patent application WO03078464).
Cloning of His- and FLAG-tagged Kv1.1 alpha subunit T1 domain cDNA, expression of Kv1.1 alpha subunit T1 domains in E. coli and lysis of E. coli containing Kv1.1 alpha subunit T1 domains were carried out as previously described (Kozlowski et al., patent application WO03078464).
To 96-well streptavidin coated microtitre plates, 100 μl of optimized concentrations of Kvbeta1 subunit cleared lysates (typically 1 in 10 dilutions in PBS-Tween) were added to each well. Plates were incubated at room temperature for 1 hour prior to use. Each well was then washed 3 times with 300 μl of PBS-Tween. Following the final wash, 80 μl of PBS-Tween was added to each well.
The test compounds (dissolved in a suitable vehicle) were added to the wells of a prepared 96-well microliter plate to achieve a range of concentrations to maintain a final assay volume of 100 μl. Plates were incubated for 30 minutes at room temperature.
After incubation with test compounds, 100 μl of Kv1.1 alpha subunit T1 domain cleared lysate (diluted 1 in 10 in PBS-Tween) was added to each well and incubated for 60 minutes at room temperature on a shaker. Unbound Kv1.1 alpha subunit T1 domain was removed by washing 3 times in 300 μl of PBS-Tween. Bound Kv1.1 alpha subunit T1 domain was estimated by using appropriately diluted mouse anti-FLAG antibody and anti-mouse IgG secondary antibody HRP conjugate using standard ELISA procedures. HRP was detected as previously described (Kozlowski et al., patent application WO03078464).
Data were analyzed using standard software packages. The test compounds were examined for their ability to inhibit the binding of Kv1.1 alpha subunit T1 domain to Kvbeta1 subunits to determine inhibition as a percentage of maximal binding in the absence of any test compound. Results are presented as the half maximal inhibitory concentration (IC50) for inhibition of Kv1.1 alpha subunit T1 binding to Kvbeta1 subunits.
For orientation: In an ELISA, binding on a coated surface is turned into a signal by an enzyme label.
For `Cc1ccc(S(=O)(=O)NC(=O)Nc2ccc3c(c2)CN(C(=O)NS(=O)(=O)c2ccc(C)cc2)C3)cc1` [Example 14, N-[(4-methylphenyl)sulfonyl]-5-[({[(4-methylphenyl)sulfonyl]amino}carbonyl)amino]-1,3-dihydro-2H-isoindole-2-carboxamide], the IC50 (usually the concentration that gives 50% inhibition) was 16 µM.

On to “N-benzylaminocarbonyl-7-[({[(4-methylphenyl)sulfonyl]amino}carbonyl)amino]-1,2,4,5-tetrahydro-3H-3-benzazepine-3-carboxamide [Example 3]”, for which the IC50 came out at 50 µM.

With `O=C(Nc1ccc2c(c1)CCN(C(=O)NS(=O)(=O)c1ccccc1Cl)CC2)NS(=O)(=O)c1ccccc1Cl` [Example 18, N-[(2-Chlorophenyl)sulfonyl]-7-({[(2-chlorophenyl)sulfonyl]carbamoyl}amino)-1,2,4,5-tetrahydro-3H-3-benzazepine-3-carboxamide], the IC50 turned out to be 181 µM.

Turning to `Cc1ccc(S(=O)(=O)NC(=O)N2CCc3ccc(NS(=O)(=O)c4ccc(-c5ccccc5)cc4)cc3CC2)cc1` [Example 25, N-[(4-Methylphenyl)sulfonyl]-7-([(4-biphenyl)sulfonyl]amino)-1,2,4,5-tetrahydro-3H-3-benzazepine-3-carboxamide], the IC50 was determined as 88 µM.

Take `O=C(Nc1ccc2c(c1)CCN(C(=O)NS(=O)(=O)c1ccc(F)cc1)CC2)NS(=O)(=O)c1ccc(F)cc1` [Example 20, N-[(4-Fluorophenyl)sulfonyl]-7-({[(4-fluorophenyl)sulfonyl]carbamoyl}amino)-1,2,4,5-tetrahydro-3H-3-benzazepine-3-carboxamide]: the IC50 came out at 191 µM.

In the case of `Cc1cccc(S(=O)(=O)NC(=O)Nc2ccc3c(c2)CCN(C(=O)NS(=O)(=O)c2cccc(C)c2)CC3)c1` [Example 17, N-[(3-Methylphenyl)sulfonyl]-7-({[(3-methylphenyl)sulfonyl]carbamoyl}amino)-1,2,4,5-tetrahydro-3H-3-benzazepine-3-carboxamide], the IC50 came out at 47 µM.

In the case of `O=C(Nc1ccc2c(c1)CCN(C(=O)NS(=O)(=O)c1ccc(Cl)cc1)CC2)NS(=O)(=O)c1ccc(Cl)cc1` [Example 19, N-[(4-Chlorophenyl)sulfonyl]-7-({[(4-chlorophenyl)sulfonyl]carbamoyl}amino)-1,2,4,5-tetrahydro-3H-3-benzazepine-3-carboxamide], the IC50 was 51 µM.

For `Cc1ccc(S(=O)(=O)NC(=O)N2CCc3ccc(NS(=O)(=O)c4ccc(C)cc4)cc3CC2)cc1` [Example 24, N-[(4-Methylphenyl)sulfonyl]-7-([(4-methylphenyl)sulfonyl]amino)-1,2,4,5-tetrahydro-3H-3-benzazepine-3-carboxamide], the IC50 came to 81 µM.

On to `Cc1ccc(S(=O)(=O)NC(=O)Nc2ccc3c(c2)CCN(C(=O)NS(=O)(=O)c2ccc(C)cc2)C3)cc1` [Example 13, N-[(4-methylphenyl)sulfonyl]-6-({[(4-methylphenyl)sulfonyl]-carbamoyl}amino)-3,4-dihydroisoquinoline-2(1H)-carboxamide], for which the 50% inhibitory concentration (IC50) worked out at 30 µM.

Take `CC(C)(C)c1ccc(S(=O)(=O)NC(=O)Nc2ccc3c(c2)CCN(C(=O)NS(=O)(=O)c2ccc(C(C)(C)C)cc2)CC3)cc1` [Example 22, N-[(4-tert-Butylphenyl)sulfonyl]-7-({[(4-tert-butylphenyl)sulfonyl]carbamoyl}-amino)-1,2,4,5-tetrahydro-3H-3-benzazepine-3-carboxamide]: the IC50 worked out at 41 µM.

Regarding `Cc1ccc(S(=O)(=O)NC(=O)Nc2ccc3c(c2)CCN(C(=O)NS(=O)(=O)c2ccc(C)cc2)CC3)cc1` [Example 15, N-[(4-Methylphenyl)sulfonyl]-7-({[(4-methylphenyl)sulfonyl]carbamoyl}amino)-1,2,4,5-tetrahydro-3H-3-benzazepine-3-carboxamide], the IC50 came to 59 µM.

For the compound `COc1ccc(S(=O)(=O)NC(=O)Nc2ccc3c(c2)CCN(C(=O)NS(=O)(=O)c2ccc(OC)cc2)CC3)cc1` [Example 21, N-[(4-Methoxyphenyl)sulfonyl]-7-({[(4-methoxyphenyl)sulfonyl]-carbamoyl}amino)-1,2,4,5-tetrahydro-3H-3-benzazepine-3-carboxamide], the IC50 came to 38 µM.
